The nature of test [1]: H2O2 free radical scavenging activity. The method, then:
The antioxidant potential of isolated compounds was determined using this approach. In a phosphate buffer solution (50 mM, pH 7.40), a solution of H2O2 (2 mM) was produced. The crude extract (0.10 mL) was measured in a test tube and diluted to 0.40 mL using phosphate buffer. Thereafter, H2O2 (0.60 mL) was added and thoroughly mixed. […] 230 nm was used to measure the absorbance of the sample and the standard ([Sadiq et al., 2018]). For all the crude samples, the exact process was followed. According to the procedure, the inhibition percentage and IC50 values were computed.

The target of a further test is T1, COX-2 (Homo sapiens, UniProt P35354).
T1 construct: purchased Sigma-Aldrich (local distributor) C0858
T1 sequence (P35354 18-604): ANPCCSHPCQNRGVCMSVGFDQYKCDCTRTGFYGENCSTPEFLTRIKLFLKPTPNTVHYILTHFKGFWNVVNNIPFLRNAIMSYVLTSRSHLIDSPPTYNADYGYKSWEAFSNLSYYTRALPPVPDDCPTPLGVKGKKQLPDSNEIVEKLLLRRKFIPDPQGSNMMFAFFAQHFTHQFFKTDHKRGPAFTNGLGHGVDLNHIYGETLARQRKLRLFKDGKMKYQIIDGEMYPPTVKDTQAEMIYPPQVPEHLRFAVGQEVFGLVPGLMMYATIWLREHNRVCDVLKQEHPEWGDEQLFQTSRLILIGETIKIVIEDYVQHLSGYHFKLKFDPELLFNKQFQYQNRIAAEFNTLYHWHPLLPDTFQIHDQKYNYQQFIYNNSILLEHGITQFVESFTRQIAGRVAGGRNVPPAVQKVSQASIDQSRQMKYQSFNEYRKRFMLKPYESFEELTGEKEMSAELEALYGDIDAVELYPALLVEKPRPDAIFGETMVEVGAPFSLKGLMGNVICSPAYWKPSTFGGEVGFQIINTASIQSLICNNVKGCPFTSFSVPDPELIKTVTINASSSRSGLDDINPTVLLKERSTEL
In words: Cyclooxygenase COX-2 inhibition assay. Conditions: for inhibition at 62.5 µg/mL: 62.50 μg/mL; for inhibition at 1000 µg/mL: 1,000 µg/mL. The format is biochemical. As for the experimental part: The COX-2 enzyme solution with 300 U/mL concentrations was formed. The enzyme solution (10 µL) was maintained on ice up to 10 min for activation. Moreover, this solution was added to a 50 µL co-factor solution containing 1 mM hematin, 0.9 mM glutathione, and 0.24 mM N,N,N,N-tetramethyl-p-phenylenediamine dihydrochloride (TMPD) in 0.1 M Tris HCl buffer at pH 8.0. […] Likewise, 30 mM of arachidonic acid (20 µL) was mixed for initiating the reaction and incubated for 4–5 min. Following incubation, absorbance of the samples was determined using a UV-visible spectrophotometer at 570 nm. The percentage inhibition of the COX-2 enzyme was determined through the absorbance value per unit time. Enzyme inhibition against various concentrations of investigated samples was used to calculate the IC50 values.

The subject of the next test is SOD. In words: In vivo antioxidant: SOD activity in brain, heart, liver. On the set-up: species or system mice. The conditions noted are these: for SOD activity: D-galactose aging mice.
In a further test the test system is GSH-Px. In words: In vivo antioxidant: GSH-Px activity in brain, heart, liver. Conditions: D-galactose aging mice. The method, then:
Twenty male albino mice were distributed into four groups, each with five mice. The control group (group 1) received 0.4 mL of distilled water. The compound was given in doses of 2.5, 5, and 10 mg/kg to groups 2, 3, and 4, respectively. Throughout the trial, the mice were given a daily dose for 3 weeks and were evaluated for alterations, other symptoms of toxicity, and death on a daily basis. Blood obtained by a direct heart puncture was utilized to assess the compound’s in vivo antioxidant activity 24 hours following the last dose ([Mota et al., 2023]).
The brain, liver, and heart homogenates were prepared in the cold saline via a homogenizer, and the unsolvable extract was discarded by centrifugation at 10,000 rpm for 15 min at temperature 4°C. After that, the supernatant was extracted immediately for GSH-Px assay ([Li et al., 2021]).

Another test deals with MDA. Nature of the test: In vivo antioxidant: MDA level. Further details: species or system mice. Conditions: compound 1 (20 mg).
For the next test, the system named is CAT. Nature of the test: In vivo antioxidant: CAT activity. Further details: species or system mice. Conditions: high tested dose. As for the experimental part: Twenty male albino mice were distributed into four groups, each with five mice. The control group (group 1) received 0.4 mL of distilled water. The compound was given in doses of 2.5, 5, and 10 mg/kg to groups 2, 3, and 4, respectively. Throughout the trial, the mice were given a daily dose for 3 weeks and were evaluated for alterations, other symptoms of toxicity, and death on a daily basis. […]
[…] […] The reaction was started by adding 0.1 mL of fresh 30 mM H2O2, and the decomposition rate of H2O2 was measured on a spectrophotometer at 240 nm for 5 min. Catalase activity was determined using a molar extinction coefficient of 0.041 mM^−1 cm^−1.

The test system of test [2] is bradykinin-induced paw edema. Nature of the test: Bradykinin-induced paw edema.
Experimental: (§1) Employing prostaglandin E2, bradykinin, leukotriene, and histamine induced paw edema assays; the potential anti-inflammatory mechanism of the isolated compound was investigated. […] Sub-planter injections of prostaglandin E2 (0.01 mg/mL) or 10 mg/mL leukotriene or bradykinin (20 mg/mL) or 0.1 mL histamine (1 mg/mL) produced paw edema after 1 h. Each mouse’s paw volume was assessed immediately before and after sub-planter injection of various irritants (inflammatory agents) at 1–5 h.
The subject of test [3] is prostaglandin E2-induced paw edema. Nature of the test: Prostaglandin E2-induced paw edema. Conditions: 20 mg/kg, 4th hour (maximal).
Experimental: as §1

Structures are written as SMILES.

The term IC50 denotes the concentration at which inhibition is half-maximal. A lower IC50 goes with greater potency in that assay. One may read the inhibition as how much of the control response was suppressed. The low end stands for a weak effect, the high end for a strong effect.

As for `Cc1cnc(O)nc1O` [Compound 1, 5-methylpyrimidine-24,4-diol], the “H2O2 IC50” value in test [1] is 05 µg/mL. Also, the H2O2 % inhibition in test [1] (62.5 µg/mL) was 69.91 ± 1.30 ^ns %; in test [1] (125 µg/mL), 71.76 ± 0.61 ^ns %; in test [1] (250 µg/mL), 76.87 ± 1.27 ^ns %; in test [1] (500 µg/mL), 81.13 ± 0.20^ns %; in test [1] (1,000 µg/mL) it was 85.20 ± 0.23^ns %. At COX-2, this compound had an IC50 of 84.8 µM. This compound also came in with an inhibition at 62.5 µg/mL against COX-2 of 61.1 ± 0.7%. Besides, the inhibition at 125 µg/mL against COX-2 was 66.4 ± 0.7%. This compound also displayed an inhibition at 250 µg/mL on COX-2 of 72.7 ± 0.51%. In addition, at COX-2, testing at 500 µg/mL gave an inhibition of 78.83 ± 0.73%. Moreover, the inhibition at 1000 µg/mL against COX-2 worked out at 83.13 ± 0.8%. The SOD activity in the test on SOD (brain, high-dosage group) was 95 U/mL; in the test on SOD (heart, compound 1 (10 mg) group), 140.0 U/mg proteins; in the test on SOD (heart, high-dosage group), 180.0 U/mg proteins; in the test on SOD (liver, high-dosage group), 890.0 U/mg protein. Besides, in the test with SOD (p < 0.05, D-galactose aging mice), the “SOD activity compared to the model group” value is “higher”. In the test on GSH-Px, the “GSH-Px activity in brain, heart and liver” value was “enhances the activity of GSH-Px”. Besides, the MDA concentration in the test with MDA (brain) came to 1.15 nmol/mL; in the test on MDA (heart), 0.8 nmol/mg protein; with MDA (liver), 0.4 nmol/mg protein. For the same compound, the CAT activity with CAT (brain) stood at 97 U/mL; in the test with CAT (heart) it was 143.02 U/mg protein; with CAT (liver), 139.0 U/mg protein. The “Percentage inhibition of bradykinin-induced paw edema” value in test [2] (20 mg/kg, initial hour) was determined as 9.20 ± 1.12%. Further, in test [2] (low doses), the “Activity against bradykinin-induced paw edema” value was “no activity”. Moreover, the “Percentage inhibition of prostaglandin E2-induced paw edema” value in test [3] is 82.0 ± 0.34%.
As to `CC1=C(O)C(=O)C(O)CO1` (centres unmarked) [Compound 2, 3,5-dihydroxy-6-methyl-2,3-dihydro-4H-pyran-4-one], in test [1], the “H2O2 IC50” value came to 06 µg/mL. In addition, the H2O2 % inhibition in test [1] (62.5 µg/mL) is recorded as 67.90 ± 1.16 ^ns %. Besides, the H2O2 % inhibition in test [1] (125 µg/mL) was 71.34 ± 0.55 ^ns %. Moreover, in test [1] (250 µg/mL), the H2O2 % inhibition is given as 75.36 ± 0.49 ^ns %. Besides, in test [1] (500 µg/mL), the H2O2 % inhibition is 80.39 ± 0.49 ^ns %. Moreover, the H2O2 % inhibition in test [1] (1,000 µg/mL) is 86.39 ± 0.60 ^ns %. In addition, at COX-2, half-maximal inhibition (IC50) was put at 101 µM, the inhibition at 62.5 µg/mL was determined as 58.12 ± 0.34%, the inhibition at 125 µg/mL was 63.47 ± 0.49% and the inhibition at 250 µg/mL was 68.75 ± 0.14%. In addition, at COX-2, the inhibition at 500 µg/mL is 75.59 ± 0.3% and the inhibition at 1000 µg/mL turned out to be 80.85 ± 0.18%.
For `Cc1ccc(C(C)C)c(O)c1` [Compound 3, 2-isopropyl-5-methylphenol], the “H2O2 IC50” value in test [1] turned out to be 33 µg/mL. In test [1] (62.5 µg/mL), the H2O2 % inhibition is 58.74 ± 0.68 %. Also, in test [1] (125 µg/mL), the H2O2 % inhibition amounted to 62.70 ± 1.25 %. The compound also came in with an H2O2 % inhibition in test [1] (250 µg/mL) of 67.05 ± 0.75 %. For the same compound, the H2O2 % inhibition in test [1] (500 µg/mL) came out at 72.32 ± 1.06 %. In test [1] (1,000 µg/mL), this compound yielded an H2O2 % inhibition of 77.34 ± 0.98 %. At COX-2, this compound gave an IC50 of 145 µM, an inhibition at 62.5 µg/mL of 53 ± 0.57%, an inhibition at 125 µg/mL of 62.5 ± 0.44% and an inhibition at 250 µg/mL of 66.33 ± 0.33%. On COX-2, this compound came in with an inhibition at 500 µg/mL of 74.7 ± 1.2% and an inhibition at 1000 µg/mL of 79 ± 0.16%.
In the case of `C=Cc1ccc(O)cc1OC` [Compound 4, 3-methoxy-4-vinylphenol], the “H2O2 IC50” value in test [1] was determined as 65 µg/mL. The H2O2 % inhibition in test [1] (62.5 µg/mL) was determined as 53.90 ± 0.48 %. In addition, the H2O2 % inhibition in test [1] (125 µg/mL) is recorded as 57.03 ± 0.48 %. Further, the H2O2 % inhibition in test [1] (250 µg/mL) is 62.90 ± 0.96 %. Besides, in test [1] (500 µg/mL), the H2O2 % inhibition was found to be 65.65 ± 1.34 %. In addition, in test [1] (1,000 µg/mL), the H2O2 % inhibition amounted to 69.58 ± 1.12 %. At COX-2, this compound showed an IC50 of 135 µM, an inhibition at 62.5 µg/mL of 55.56 ± 0.52%, an inhibition at 125 µg/mL of 64.78 ± 0.6% and an inhibition at 250 µg/mL of 71.46 ± 0.53%. Also, at COX-2, the inhibition at 500 µg/mL was found to be 77.68 ± 0.63% and testing at 1000 µg/mL gave an inhibition of 85.72 ± 0.79%.
As for `C=Cc1cc(OC)c(O)c(OC)c1` [Compound 5, 2,6-dimethoxy-4-vinylphenol], in test [1], the “H2O2 IC50” value is recorded as 35 µg/mL. The compound further returned an H2O2 % inhibition in test [1] (62.5 µg/mL) of 57.51 ± 0.62 %. Besides, the H2O2 % inhibition in test [1] (125 µg/mL) was found to be 62.46 ± 0.47 %. In test [1] (250 µg/mL), this compound returned an H2O2 % inhibition of 66.68 ± 0.64 %. The compound further had an H2O2 % inhibition in test [1] (500 µg/mL) of 70.53 ± 0.41 %. This compound had an H2O2 % inhibition in test [1] (1,000 µg/mL) of 76.42 ± 0.46 %. At COX-2, this compound gave an IC50 of 217 µM, an inhibition at 62.5 µg/mL of 46.9 ± 0.42%, an inhibition at 125 µg/mL of 56.4 ± 0.63% and an inhibition at 250 µg/mL of 61 ± 0.33%. The compound also had an inhibition at 500 µg/mL at COX-2 of 66.2 ± 0.73%.

(Values after paper PMC10937556, “Phenolic phytochemistry, in vitro, in silico, in vivo, and mechanistic anti-inflammatory and antioxidant evaluations of Habenaria digitata” (Frontiers in Pharmacology, 2024).)
